Results: patent US20220202841A1, “DERMATOLOGICAL FORMULATIONS FOR TREATMENT OF DERMATITIS” (priority 2020, published 2022)

System: moderate to severe papular pustular rosacea with perioral dermatitis
Experiment: Treatment of a subject with the formulation, clinical examination after 1 month
Type: in vivo, human
Conditions: same subject, treatment history before the formulation, as reported at first visit
Excerpt: The lesions consisted of papules and pimples, was severe in severity, and had been present for months. […] The subject was having a bad “acne” flare up, and stated that their face was itchy and red. The subject had been treated for “acne” for a long time.
The subject was diagnosed with moderate to severe papular pustular rosacea with perioral dermatitis.
The subject was given the formulation of Example 1, and the subject administered it twice daily (AM and PM) and was seen again 1 month later, at which time their condition had improved. The subject's condition at this later examination was recorded in the images in FIGS. 2A to 2C.

Structure (SMILES): CC1=C(/C=C/C(C)=C/C=C/C(C)=C/C(=O)O)C(C)(C)CCC1 [tretinoin]
- improvement of "acne" lesions with previously tried treatment: no improvement
